# Measurements reported in article PMC4364341, “NBD delivery improves the disease phenotype of the golden retriever model of Duchenne muscular dystrophy” (Skeletal Muscle, 2014).
# Tests used:
# [1] = dog, in vivo, iv, 10 mg/kg
# Protocol: In addition to efficacy, we were interested in examining the safety profile of NBD, since long-term dosing in any animal model had yet to be performed. Blood samples at pre-dose, mid dose, and terminal dose were obtained for hematology and serum chemistry analysis. […] Supplementary file 2044-5040-4-18-S2.jpeg: Additional file 2: Figure S2 Hematologic changes in NBD-treated dogs. Serum was prepared from blood samples obtained at indicated time points prior to and following dosing with NBD in wild type and GRMD dogs. Serum samples were analyzed for complete blood counts (CBC). The graphs show results for white blood cells, red blood cells, and platelet counts. Click here for file Supplementary file 2044-5040-4-18-S3.jpeg: Additional file 3: Figure S3 Clinicopathologic changes in NBD-treated dogs. Serum was prepared from blood samples obtained at indicated time points prior to and following dosing with NBD in wild type and GRMD dogs. Serum samples were analyzed for ALT, AST, GGT, bilirubin, creatinine, potassium, and creatine kinase. Click here for file
# GRMD dogs = experiment: Tibiotarsal joint (TTJ) tetanic force/torque, GRMD dogs; type: in vivo, dog; details: for Absolute Tetanic Extension Force / Absolute Tetanic Extension Torque / Absolute Tetanic Flexion Force / Absolute Tetanic Flexion Torque / Body-mass Corrected Tetanic Extension Force / Body-mass Corrected Tetanic Extension Torque / Body-mass Corrected Tetanic Flexion Force / Body-mass Corrected Tetanic Flexion Torque: n = 6
# Protocol: The GRMD disease phenotype was initially determined based on elevation of serum creatine kinase and confirmed by PCR. Two cohorts of GRMD dogs were treated with a 4-month course of NBD (10 mg/kg, IV) (American Peptides; Sunnyvale, CA, USA), beginning at approximately 2 months of age. The first cohort included four GRMD (Wasabi, Pepper, Hiver, and Automne) and two wild type (Cumin and Fennel) dogs, while the second cohort included two GRMD (Peach and Kiwi) and one wild type (Mango) dog. Results were compared with those collected from 10 untreated GRMD dogs (Cilantro, Lyle, Napoleon, Summer, Jane, Cosmo, Dorothy, Toto, Hickory, and Zeke) and eight age-matched wild type littermates (Oregano, Parsley, Kip, Pedro, Pinkman, Saul, Heisenberg, and Tuco) through a parallel, but separate, natural history study in which functional, magnetic resonance imaging (MRI), and pathologic data were collected.
# For all tests, dogs were anesthetized (premeds: acepromazine maleate (0.02 mg/kg), butorphanol (0.4 mg/kg), and atropine sulfate (0.04 mg/kg); masked/intubated; and maintained with sevoflurane). To assess force and eccentric contraction decrement (below), dogs were positioned in dorsal recumbence in a custom-made stereotactic frame that aligns the tibia parallel to the table at a 90° angle to the femur. The angle at which maximal joint torque is generated during isometric contractions has been termed the optimal joint angle, which is analogous to the optimal fiber length (Lo) for individual muscle force measurements. Our choice of 90° as the optimal joint angle was based on studies in which torque was measured over a range of angles. The length-tension relationship was not shifted for normal versus GRMD dogs. TTJ flexion and extension torque (N-m) was measured by a rapid-response servomotor/force transducer (model 310B LR, Aurora Scientific, Inc., Aurora, ON, Canada) controlled by a PC using custom LabView software. Either the common peroneal (TTJ flexion) or tibial (TTJ extension) nerve was stimulated using paired stimulating and reference 27-gauge monopolar electrodes placed just distal to the fibular head (common peroneal nerve) or within the gastrocnemius muscles (tibial nerve), respectively. As a result, the paw of the distal pelvic limb pulled (flexion) or pushed against (extension) a pedal affixed to a transducer, providing a measure of isometric torque. Supramaximal 150 V, 100 μs pulses were applied (Model S48 Solid State Square Wave Stimulator; Grass Instruments, Quincy, MA, USA) in a tetanic run of 250 pulses (50/s). The site of contact for the paw with the lever (moment arm) was estimated to be 75% of the distance between the point of the hock and the distal digit. Torque (Newton-meters) was divided by the moment arm (meters) to convert to force (Newtons).
# [2] = NBD group, age 2 months (start of treatment)
# [3] = age 6 months, NBD 10 mg/kg IV 3x weekly for 4 months
sequence,measurement,setting,value
"TALDWSWLQTE [NBD, NBD peptide (…) fused to an Antennapedia protein transduction domain]",Hematology and serum chemistry analysis,[1],no adverse effects
same,Absolute Tetanic Extension Force,GRMD dogs; [2],7.50 ± 2.09 N
same,Absolute Tetanic Extension Torque,GRMD dogs; [2],0.62 ± 0.16 Nm
same,Absolute Tetanic Flexion Force,GRMD dogs; [2],2.05 ± 0.58 N
same,Absolute Tetanic Flexion Torque,GRMD dogs; [2],0.17 ± 0.06 Nm
same,Body-mass Corrected Tetanic Extension Force,GRMD dogs; [2],2.11 ± 0.70 N/kg
same,Body-mass Corrected Tetanic Extension Torque,GRMD dogs; [2],0.21 ± 0.07 Nm/kg
same,Body-mass Corrected Tetanic Flexion Force,GRMD dogs; [2],0.57 ± 0.15 N/kg
same,Body-mass Corrected Tetanic Flexion Torque,GRMD dogs; [2],0.05 ± 0.01 Nm/kg
same,Absolute Tetanic Extension Force,GRMD dogs; [3],"34.30 ± 9.65^1**,2 N"
same,Absolute Tetanic Extension Torque,GRMD dogs; [3],"4.55 ± 1.49^1**,2 Nm"
same,Absolute Tetanic Flexion Force,GRMD dogs; [3],6.79 ± 1.13^1 N
same,Absolute Tetanic Flexion Torque,GRMD dogs; [3],0.89 ± 0.18^1 Nm
same,Body-mass Corrected Tetanic Extension Force,GRMD dogs; [3],2.70 ± 0.65^2 N/kg
same,Body-mass Corrected Tetanic Extension Torque,GRMD dogs; [3],"0.36 ± 0.08^1*,2 Nm/kg"
same,Body-mass Corrected Tetanic Flexion Force,GRMD dogs; [3],0.55 ± 0.13 N/kg
same,Body-mass Corrected Tetanic Flexion Torque,GRMD dogs; [3],0.07 ± 0.02^1 Nm/kg
same,Increase in extension force vs untreated GRMD dogs,"GRMD dogs; pelvic limb, body-mass corrected, NBD 10 mg/kg IV 3x weekly for 4 months, P = 0.038",73%
